Assay results from US20080227725A1, “Cosmetic or pharmaceutical composition comprising peptides, uses and treatment processes” (priority 2002, published 2008).
Where a SMILES comes first, the peptide text is derived from it.

System: ERG 1-2 molecule
Experiment: Cell differentiation marker ERG 1-2 in HaCat keratinocytes, immunofluorescence
Assay type: cell-based
Details: HaCat human keratinocytes, at 24 hours

SMILES: N=C(N)NCCC[C@H](N)C(=O)NCC(=O)N[C@@H](CO)C(=O)O [Arg-Gly-Ser] (H-Arg-Gly-Ser-OH)
- quantity of ERG molecules present in the cells (intensity of fluorescence), cell differentiation: increases the quantity of ERG molecules
